Values joined by “and” are separate entries in the source; they are usually repeats but may differ in a detail not shown here. Equal values may be shown once.
Tests used:
[1] = biological target: T1, ~100 representative kinases (Homo sapiens, UniProt O75385); experiment: DSF 100 kinase selectivity screen; type: binding; conditions: Protein ULK1; DSF; average of three replicates;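 also: compound tested at 20 µM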
T1 construct: Recombinant protein kinase domains with a concentration of 2 μM
T1 sequence (O75385 1-1050): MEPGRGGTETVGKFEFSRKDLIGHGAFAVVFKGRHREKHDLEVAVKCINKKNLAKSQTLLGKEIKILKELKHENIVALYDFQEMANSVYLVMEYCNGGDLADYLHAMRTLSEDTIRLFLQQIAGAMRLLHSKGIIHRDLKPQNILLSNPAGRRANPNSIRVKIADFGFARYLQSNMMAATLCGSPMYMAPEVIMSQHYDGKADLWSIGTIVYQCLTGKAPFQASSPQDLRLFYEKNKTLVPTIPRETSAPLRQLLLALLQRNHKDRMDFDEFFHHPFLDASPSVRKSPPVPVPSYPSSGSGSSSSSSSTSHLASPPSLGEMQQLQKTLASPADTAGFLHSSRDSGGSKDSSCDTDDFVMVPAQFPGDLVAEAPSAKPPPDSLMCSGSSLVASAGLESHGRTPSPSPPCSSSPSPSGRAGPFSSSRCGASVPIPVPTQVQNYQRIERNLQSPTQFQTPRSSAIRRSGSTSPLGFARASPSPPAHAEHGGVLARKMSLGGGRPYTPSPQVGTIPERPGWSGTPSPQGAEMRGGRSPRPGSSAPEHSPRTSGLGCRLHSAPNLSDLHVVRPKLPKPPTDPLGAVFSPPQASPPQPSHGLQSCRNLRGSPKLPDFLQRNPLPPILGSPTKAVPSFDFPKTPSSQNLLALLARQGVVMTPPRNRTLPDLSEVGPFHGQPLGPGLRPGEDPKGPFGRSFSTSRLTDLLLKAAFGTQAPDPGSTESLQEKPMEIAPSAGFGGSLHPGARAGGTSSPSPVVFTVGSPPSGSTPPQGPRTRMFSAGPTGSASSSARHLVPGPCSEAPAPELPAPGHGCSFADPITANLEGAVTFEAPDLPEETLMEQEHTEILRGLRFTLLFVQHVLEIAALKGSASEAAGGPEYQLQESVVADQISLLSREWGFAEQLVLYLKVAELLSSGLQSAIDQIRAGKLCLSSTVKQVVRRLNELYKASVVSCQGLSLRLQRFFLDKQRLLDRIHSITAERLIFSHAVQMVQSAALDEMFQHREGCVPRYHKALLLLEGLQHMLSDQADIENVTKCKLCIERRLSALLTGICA
Method in brief: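 Each kinase domain, at 2 μM, is mixed with 20 μM test compound and SYPRO Orange in Hepes (20 mM, pH 7.5) with 500 mM NaCl. Temperature is then raised at 3°C/min and fluorescence-monitored unfolding yields the melting temperature change, ΔTm in degrees Celsius.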

[2] = biological target: T2, LRRK2^RCKW (Homo sapiens, UniProt Q5S007); experiment: Biochemical LRRK2 activity assay (PhosphoSense, AssayQuant SOX peptide AQT0615); conditions: for IC50: LRRK2^RCKW kinase activity, in vitro; for normalized response (LRRK2 activity): normalized to 0% (no kinase) and 100% (no inhibitor) control, two singlicate columns per compound
T2 construct: LRRK2 R1327 to E2527; His6-Z-tag (TEV cleavable) (N, cleaved yes); host or cells: Sf9 insect cells (baculovirus)
T2 sequence (Q5S007 1327-2527): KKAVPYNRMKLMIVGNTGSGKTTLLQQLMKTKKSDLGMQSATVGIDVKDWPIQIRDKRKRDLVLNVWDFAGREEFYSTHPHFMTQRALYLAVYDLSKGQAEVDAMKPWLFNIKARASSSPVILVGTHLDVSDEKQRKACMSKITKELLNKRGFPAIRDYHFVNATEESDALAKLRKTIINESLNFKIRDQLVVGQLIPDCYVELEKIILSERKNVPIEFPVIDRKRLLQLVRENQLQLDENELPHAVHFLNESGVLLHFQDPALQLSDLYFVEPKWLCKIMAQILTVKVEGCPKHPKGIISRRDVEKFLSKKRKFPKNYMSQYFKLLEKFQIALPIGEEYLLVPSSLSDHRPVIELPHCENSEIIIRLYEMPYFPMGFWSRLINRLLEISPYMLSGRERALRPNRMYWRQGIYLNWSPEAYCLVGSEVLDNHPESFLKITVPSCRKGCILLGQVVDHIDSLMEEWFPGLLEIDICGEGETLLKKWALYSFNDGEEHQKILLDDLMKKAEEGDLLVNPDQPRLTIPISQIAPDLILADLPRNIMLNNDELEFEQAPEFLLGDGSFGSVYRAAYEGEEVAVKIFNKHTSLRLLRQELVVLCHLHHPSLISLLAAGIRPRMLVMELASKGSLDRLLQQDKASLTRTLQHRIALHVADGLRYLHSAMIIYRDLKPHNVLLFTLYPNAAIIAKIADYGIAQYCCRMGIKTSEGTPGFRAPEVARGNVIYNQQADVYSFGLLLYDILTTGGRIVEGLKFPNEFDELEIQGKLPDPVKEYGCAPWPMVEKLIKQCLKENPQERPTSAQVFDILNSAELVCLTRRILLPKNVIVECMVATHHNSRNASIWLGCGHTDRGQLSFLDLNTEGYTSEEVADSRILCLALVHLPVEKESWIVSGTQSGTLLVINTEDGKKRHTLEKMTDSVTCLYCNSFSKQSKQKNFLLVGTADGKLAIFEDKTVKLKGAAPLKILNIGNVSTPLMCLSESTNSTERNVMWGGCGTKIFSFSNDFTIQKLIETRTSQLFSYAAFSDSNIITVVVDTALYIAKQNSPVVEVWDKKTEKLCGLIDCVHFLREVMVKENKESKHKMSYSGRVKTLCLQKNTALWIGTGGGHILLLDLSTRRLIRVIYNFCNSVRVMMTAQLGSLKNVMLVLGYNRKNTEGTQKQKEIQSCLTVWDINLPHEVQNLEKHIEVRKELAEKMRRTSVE
Method in brief: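 Controls lacked protein and compound (0%) or compound only (100%). IC50 derived by nonlinear regression of normalized response versus log[inhibitor].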

Compound	IC50 [2] [nM]	normalized response (LRRK2 activity) ([2]; log[inhibitor(mol)] -4.82391)	normalized response (LRRK2 activity) ([2]; log[inhibitor(mol)] -5.12494)	normalized response (LRRK2 activity) ([2]; log[inhibitor(mol)] -5.60206)	normalized response (LRRK2 activity) ([2]; log[inhibitor(mol)] -6.30103)	normalized response (LRRK2 activity) ([2]; log[inhibitor(mol)] -6.90309)	normalized response (LRRK2 activity) ([2]; log[inhibitor(mol)] -7.30103)	normalized response (LRRK2 activity) ([2]; log[inhibitor(mol)] -7.60206)	normalized response (LRRK2 activity) ([2]; log[inhibitor(mol)] -8.09691)	normalized response (LRRK2 activity) ([2]; log[inhibitor(mol)] -8.61979)	normalized response (LRRK2 activity) ([2]; log[inhibitor(mol)] -9.09691)	normalized response (LRRK2 activity) ([2]; log[inhibitor(mol)] -9.39794)	dTm [1] [K]
CCNc1nc(Nc2cc(F)c(C(=O)N3CCOCC3)cc2OC)ncc1C(F)(F)F [GNE-7915]													1.06
C[C@@H]1CN(c2cc(-c3n[nH]c4ccc(OC5(C)CC5)cc34)ncn2)C[C@H](C)O1 [MLi2]													0.01
O=C(Nc1ccccc1)C1(C(=O)Nc2cccc(-c3c[nH]c4ncnc(N5CCOCC5)c34)c2)CC1 [Compound 12]	350 ± 25	0.1647% and -9.791%	-4.574% and -1.793%	1.386% and 6.849%	35.45% and 38.9177%	76.566% and 79.9356%	91.6032% and 94.9482%	99.2139% and 97.704%	99.3121% and 101.951%	104.222% and 110.035%	103.486% and 106.278%	106.585% and 109.47%	
Cn1cc(-c2c[nH]c3ncnc(N4CCOCC4)c23)cc1C#N [PFE-360]													1.48
O=C(Nc1cccc(-c2c[nH]c3ncnc(N4CCOCC4)c23)c1)C1(C(=O)Nc2ccc(F)c(F)c2)CC1 [Compound 17]	253 ± 33	-1.222% and -11.0979%	-9.447% and -10.6928%	0.9319% and 1.085%	26.1821% and 29.3798%	67.0342% and 72.3494%	85.8031% and 94.494%	98.3853% and 103.983%	103.068% and 102.123%	111.403% and 110.329%	113.398% and 109.795%	105.315% and 104.756%	
CN[C@@H]1C[C@H]2O[C@@](C)([C@@H]1OC)n1c3ccccc3c3c4c(c5c6ccccc6n2c5c31)C(=O)NC4 [Staurosporine]													14.02

More lines, main results first:

IC50 [2] [nM]	normalized response (LRRK2 activity) ([2]; log[inhibitor(mol)] -4.82391)	normalized response (LRRK2 activity) ([2]; log[inhibitor(mol)] -5.12494)	normalized response (LRRK2 activity) ([2]; log[inhibitor(mol)] -5.60206)	normalized response (LRRK2 activity) ([2]; log[inhibitor(mol)] -6.30103)	normalized response (LRRK2 activity) ([2]; log[inhibitor(mol)] -6.90309)	normalized response (LRRK2 activity) ([2]; log[inhibitor(mol)] -7.30103)	normalized response (LRRK2 activity) ([2]; log[inhibitor(mol)] -7.60206)	normalized response (LRRK2 activity) ([2]; log[inhibitor(mol)] -8.09691)	normalized response (LRRK2 activity) ([2]; log[inhibitor(mol)] -8.61979)	normalized response (LRRK2 activity) ([2]; log[inhibitor(mol)] -9.09691)	normalized response (LRRK2 activity) ([2]; log[inhibitor(mol)] -9.39794)	Compound	dTm [1] [K]
159 ± 0.2	-26.6261% and -31.2355%	-19.0277% and -21.4214%	-16.2351% and -13.5898%	3.675% and 3.246%	59.976% and 57.9812%	81.7768% and 85.349%	93.6348% and 95.0771%	95.5743% and 95.9609%	101.288% and 95.0587%	106.438% and 96.5808%	103.437% and 104.087%	O=C(Nc1cccc(-c2c[nH]c3ncnc(N4CCOCC4)c23)c1)C1(C(=O)Nc2ccc(F)cc2F)CC1 [Compound 23]	
59.7 ± 2.9	3.992% and -4.217%	-4.603% and -7.6443%	-5.899% and -7.93%	-0.5957% and -1.998%	20.6807% and 19.3416%	54.9087%	83.9541% and 76.0062%	102.755% and 100.691%	109.195% and 109.069%	110.935% and 112.883%	72.3369% and 118.777%	CC(C)(C)c1cc(NC(=O)Nc2cccc(-c3c[nH]c4ncnc(N5CCOCC5)c34)c2)n(-c2ccc3ncccc3c2)n1 [Compound 28]	
152 ± 44		-12.1904% and -14.2894%	-3.604% and -4.745%		53.6603% and 67.7094%	89.4919% and 81.5068%		92.5361% and 84.907%	95.9241% and 92.0144%	91.7935% and 96.8386%	94.1994% and 95.2858%	O=C(Nc1cccc(-c2c[nH]c3ncnc(N4CCOCC4)c23)c1)C1(C(=O)Nc2ccc(F)c(Cl)c2)CC1 [Compound 18]	
110 ± 11	-5.58% and -14.6884%	-12.9576% and -4.07%	-8.508% and -7.489%		42.2259% and 43.1588%	74.6695% and 77.6217%	88.2582% and 90.1977%	89.9215% and 96.544%	106.119% and 94.9298%	105.603% and 97.4708%	68.2188% and 102.467%	Cc1cc(NC(=O)C2(C(=O)Nc3cccc(-c4c[nH]c5ncnc(N6CCOCC6)c45)c3)CC2)ccc1F [Compound 20]	
